Assay results as given in publication PMC13184988, “Enzymatic Bromination of Native Peptides for Late-Stage Structural Diversification via Suzuki–Miyaura Coupling” (ACS Chemical Biology, 2026).
Where “and” joins values, the source holds several entries; their conditions need not be identical. Equal values may be shown once. *1 amine or outer side, *2 acyl side, *3 side chain or, on linkers, in order; H or OH if unused. Where a SMILES comes first, the peptide text is derived from it. [ ]: non-standard residue; d: D form. X1 = O=C([C@H](Cc1c[nH]c2c(-c3cccc(C(F)(F)F)c3)cccc12)N[*:1])[*:2]; Trp(7-Br) = N[C@@H](Cc1c[nH]c2c(Br)cccc12)C(=O)O

Legend:
E. coli XL10 [1] = test: Bacterial minimal inhibitory concentration, 18 h growth inhibition assay; assay type: cell-based
E. coli XL10 [2] = test: Minimal bactericidal concentration (Petri dish and spot assay); assay type: cell-based
Protocol: 0.5%. After incubation, the cells were washed 2 × 0.5 mg/mL heparin sulfate in PBS and then washed with 2 × FluoroBrite DMEM. FluoroBrite DMEM (200 µL) was added to each well for imaging. 1 drop of NucRed nuclear counterstain was added to visualize the cell nuclei. The cells were imaged using a Nikon microscope equipped with an Orca-Fire camera. Fiji was used for […]
. Fluorescence images were background corrected and individual nuclei were segmented based on a threshold intensity in the NucRed […]
Mueller-Hinton II cation-adjusted broth (10 mL) was inoculated with E. coli XL10 and incubated overnight with shaking at 37°C. The next day, the overnight culture was diluted to an OD600 of 0.5 […]
OD600 0.5 culture was further diluted 20-fold into fresh Mueller-Hinton II cation-adjusted broth […]
From each triplicate experiment, 100 µL of the 18-hour minimal inhibitory growth culture (see above) was plated on a petri dish containing Mueller-Hinton II cation-adjusted agar. […] The next morning, the bacterial growth on each triplicate plate was assessed. […]
Using a multichannel pipette, 3 μL from each triplicate of the 18-hour minimal inhibitory growth culture (see above) was spotted on a square petri dish containing Mueller-Hinton II cation-adjusted agar. […] The next morning, the bacterial growth on each triplicate plate was assessed. […]

4V = assay type: biochemical

Compound | fold decrease in MIC relative to the parent peptide (RW)3 (E. coli XL10 [1]) | fold decrease in MBC relative to the parent peptide (RW)3 (E. coli XL10 [2]) | Average Percent Conversion (4V) [%] | Percent Br2 Conversion (EIC) (4V) [%] | Percent Br Conversion (EIC) (4V) | Total Percent Conversion (4V) | 4V-catalyzed conversion to the monobrominated product (4V; unmodified bioactive peptides, 1 mM peptide, 10 mM NaBr, 25 μM 4V, 25 mM HEPES pH 7.4, 24 h ambient, n = 3 independent experiments) [%]
N=C(N)NCCC[C@H](NC(=O)[C@H](Cc1c[nH]c2ccccc12)NC(=O)[C@H](CCCNC(=N)N)NC(=O)[C@H](Cc1c[nH]c2ccccc12)NC(=O)[C@@H](N)CCCNC(=N)N)C(=O)N[C@@H](Cc1c[nH]c2c(Br)cccc12)C(N)=O [Br-(RW)3] (H-RWRWR[Trp(7-Br)]-NH2; N-terminus assumed) | approximately 4 fold | approximately 4 fold |  |  |  |  | 
N=C(N)NCCC[C@H](NC(=O)[C@H](Cc1c[nH]c2ccccc12)NC(=O)[C@H](CCCNC(=N)N)NC(=O)[C@H](Cc1c[nH]c2ccccc12)NC(=O)[C@@H](N)CCCNC(=N)N)C(=O)N[C@@H](Cc1c[nH]c2c(-c3cccc(C(F)(F)F)c3)cccc12)C(N)=O [CF3(−RW)3] (H-RWRWR[X1]-NH2; N-terminus assumed) |  | 4 fold |  |  |  |  | 
galanin |  |  | 21.379 | 0 | 21.5543% and 21.2037% | 21.2037% and 21.5543% | 16.8 ± 0.2
